In ChEMBL document CHEMBL5532719, “Insight on Some Newly Synthesized Trisubstituted Imidazolinones as VEGFR-2 Inhibitors” (ACS Med Chem Lett, 2024):
In brackets after ≈: the same amount, converted by molar mass. Values belong to the molecule of their own block, whether it stands above or below them.

Legend:
MCF7 [1] = assay: Cytotoxicity against human MCF7 cells incubated for 72 hrs by MTT assay; format: functional, cell-based; conditions: MCF7, 72 h
A549 = assay: Cytotoxicity against human A549 cells incubated for 72 hrs by MTT assay; format: functional, cell-based; conditions: A549, 72 h
[2] = molecular target: T1, Vascular endothelial growth factor receptor 2 (Homo sapiens, UniProt P35968); assay: Inhibition of recombinant VEGFR2 (unknown origin) using poly (Glu,Tyr) 4:1 as substrate measured after 45 mins in presence of ATP by microplate reader analysis
T1 sequence (P35968 whole entry): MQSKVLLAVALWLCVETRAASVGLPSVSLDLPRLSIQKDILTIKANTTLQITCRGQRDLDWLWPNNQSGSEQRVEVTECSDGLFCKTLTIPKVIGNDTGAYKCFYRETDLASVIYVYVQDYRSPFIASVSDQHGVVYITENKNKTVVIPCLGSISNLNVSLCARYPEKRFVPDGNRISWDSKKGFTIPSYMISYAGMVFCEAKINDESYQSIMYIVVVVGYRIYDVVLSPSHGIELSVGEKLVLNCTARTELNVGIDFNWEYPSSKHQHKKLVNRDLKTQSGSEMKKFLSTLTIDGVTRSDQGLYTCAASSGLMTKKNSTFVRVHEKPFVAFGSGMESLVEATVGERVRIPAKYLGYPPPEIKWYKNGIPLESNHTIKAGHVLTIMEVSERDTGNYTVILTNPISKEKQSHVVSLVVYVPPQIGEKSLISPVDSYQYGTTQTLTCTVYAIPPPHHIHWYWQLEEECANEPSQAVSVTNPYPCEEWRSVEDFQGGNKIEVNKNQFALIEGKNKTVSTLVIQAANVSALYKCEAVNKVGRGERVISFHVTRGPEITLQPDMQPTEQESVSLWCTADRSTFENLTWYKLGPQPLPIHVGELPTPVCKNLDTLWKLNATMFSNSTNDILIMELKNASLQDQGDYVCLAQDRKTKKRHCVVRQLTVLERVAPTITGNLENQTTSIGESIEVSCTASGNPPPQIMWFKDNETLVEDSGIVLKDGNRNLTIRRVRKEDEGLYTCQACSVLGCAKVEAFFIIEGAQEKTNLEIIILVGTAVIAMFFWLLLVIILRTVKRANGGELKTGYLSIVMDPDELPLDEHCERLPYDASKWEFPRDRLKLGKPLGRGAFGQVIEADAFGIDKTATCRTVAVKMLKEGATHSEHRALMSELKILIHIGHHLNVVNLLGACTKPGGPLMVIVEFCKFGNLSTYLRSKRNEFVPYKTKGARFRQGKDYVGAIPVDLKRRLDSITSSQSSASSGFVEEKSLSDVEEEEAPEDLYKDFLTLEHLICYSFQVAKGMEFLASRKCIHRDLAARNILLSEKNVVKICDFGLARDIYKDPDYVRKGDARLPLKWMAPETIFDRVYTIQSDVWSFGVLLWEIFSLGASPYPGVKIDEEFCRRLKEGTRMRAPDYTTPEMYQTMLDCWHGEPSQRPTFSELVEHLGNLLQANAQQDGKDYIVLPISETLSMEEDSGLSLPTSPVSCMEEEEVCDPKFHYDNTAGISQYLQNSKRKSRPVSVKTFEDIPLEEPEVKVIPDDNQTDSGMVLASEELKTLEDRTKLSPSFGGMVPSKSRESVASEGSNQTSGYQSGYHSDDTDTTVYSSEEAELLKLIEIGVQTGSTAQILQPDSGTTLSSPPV

[3] = molecular target: T1, Vascular endothelial growth factor receptor 2; assay: Inhibition of recombinant human VEGFR-2 using poly (Glu,Tyr) 4:1 as substrate in presence of ATP
[4] = Cytotoxicity against human WI-38 cells incubated for 72 hrs by MTT assay; format: toxicity, cell-based
[5] = Selectivity index, ratio of IC50 for human WI-38 cells to IC50 for human MCF7 cells; format: toxicity; conditions: WI-38 cells versus MCF7 cells, read-out: Ratio IC50
[6] = Selectivity index, ratio of IC50 for human WI-38 cells to IC50 for human A549 cells; format: toxicity; conditions: WI-38 cells versus A549 cells, read-out: Ratio IC50
MCF7 [7] = assay: Induction of cell cycle arrest in human MCF7 cells assessed as G1 phase arrest at 5.86 uM incubated for 72 hrs by PI staining based flow cytometry analysis (reference value: 11.07%); format: functional
MCF7 [8] = assay: Induction of cell cycle arrest in human MCF7 cells assessed as G2/M phase arrest at 5.86 uM incubated for 72 hrs by PI staining based flow cytometry analysis (reference value: 13.52%); format: functional
MCF7 [9] = assay: Induction of apoptosis in human MCF7 cells assessed as early apoptotic cells at 5.86 uM incubated for 72 hrs by Annexin-V/PI staining based flow cytometry analysis (reference value: 0.06%); format: functional
MCF7 [10] = assay: Induction of apoptosis in human MCF7 cells assessed as late apoptotic cells at 5.86 uM incubated for 72 hrs by Annexin-V/PI staining based flow cytometry analysis (reference value: 0.68%); format: functional
MCF7 [11] = assay: Induction of apoptosis in human MCF7 cells assessed as necrotic cells at 5.86 uM incubated for 72 hrs by Annexin-V/PI staining based flow cytometry analysis (reference value: 0.02%); format: functional
[12] = Cytotoxicity against HUVECs incubated for 72 hrs by MTT assay; format: toxicity, cell-based; conditions: human, HUVEC cells
HUVEC = assay: Inhibition of cell migration in human HUVECs assessed as reduction in wound closure percentage (reference value: 97.037%); format: functional; design: scale not given: the % may be the effect or the level left
MCF7 [13] = assay: Cytotoxicity against human MCF-7 cells; format: functional, cell-based
HepG2 = assay: Cytotoxicity against human HepG2 cells; format: functional, cell-based

IC50 [2]: 0.1 µM
Structure (SMILES): CN(C)c1ccc(/C=C2\N=C(c3ccc(Cl)cc3)N(c3ccc(S(=O)(=O)Nc4nccs4)cc3)C2=O)cc1
IC50 (MCF7 [1]): 8.65 µM
IC50 (A549): 16.2 µM

Structure (SMILES): CN(C)c1ccc(/C=C2\N=C(c3ccccc3)N(c3ccc(S(=O)(=O)NC(=N)N)cc3)C2=O)cc1
IC50 (MCF7 [1]): 37.4 µM
IC50 (A549): 61.2 µM

IC50 [3]: 0.0198 µM
Structure (SMILES): CCOC(=O)/C(C#N)=C(\c1ccc(O)cc1)N1CC(=O)N(/N=C(\C)c2ccc(O)cc2O)C1=S

Structure (SMILES): Cc1cc(NS(=O)(=O)c2ccc(NC(=O)COC(=O)c3ccc(N4C(=O)/C(=C/c5ccc(N(C)C)cc5)N=C4c4ccccc4)cc3)cc2)no1
IC50 (MCF7 [1]): 26.8 µM
IC50 (A549): 30.6 µM

IC50 [2]: 0.02 µM
Structure (SMILES): CN(C)c1ccc(/C=C2\N=C(c3ccccc3)N(c3ccc(C(=O)OCC(=O)Nc4ccc(S(N)(=O)=O)cc4)cc3)C2=O)cc1
IC50 (MCF7 [1]): 17.7 µM
IC50 (A549): 14.1 µM

Structure (SMILES): CN(C)c1ccc(/C=C2\N=C(c3ccc(Cl)cc3)N(c3ccc(C(=O)OCC(=O)Nc4ccc(S(=O)(=O)Nc5ncccn5)cc4)cc3)C2=O)cc1
IC50 (MCF7 [1]): 28.4 µM
IC50 (A549): 58 µM

IC50 [2]: 0.11 µM
Structure (SMILES): Cc1cc(NS(=O)(=O)c2ccc(N3C(=O)/C(=C/c4ccc(N(C)C)cc4)N=C3c3ccc(Cl)cc3)cc2)no1
IC50 (MCF7 [1]): 11.5 µM
IC50 (A549): 42.4 µM

IC50 [2]: 0.2 µM
Structure (SMILES): CN(C)c1ccc(/C=C2\N=C(c3ccccc3)N(c3ccc(S(N)(=O)=O)cc3)C2=O)cc1
IC50 (MCF7 [1]): 19.5 µM
IC50 (A549): 29 µM

Structure (SMILES): CN(C)c1ccc(/C=C2\N=C(c3ccccc3)N(c3ccc(C(=O)OCC(=O)Nc4ccc(S(=O)(=O)Nc5ncccn5)cc4)cc3)C2=O)cc1
IC50 (MCF7 [1]): 28.8 µM
IC50 (A549): 27.3 µM

Structure (SMILES): Cc1cc(NS(=O)(=O)c2ccc(NC(=O)COC(=O)c3ccc(N4C(=O)/C(=C/c5ccc(N(C)C)cc5)N=C4c4ccc(Cl)cc4)cc3)cc2)no1
IC50 (MCF7 [1]): 42.1 µM
IC50 (A549): 45.5 µM

Structure (SMILES): CN(C)c1ccc(/C=C2\N=C(c3ccccc3)N(c3ccc(C(=O)OCC(=O)Nc4ccc(S(=O)(=O)NC(=N)N)cc4)cc3)C2=O)cc1
IC50 (MCF7 [1]): 27.7 µM
IC50 (A549): 38.7 µM

Structure (SMILES): CN(C)c1ccc(/C=C2\N=C(c3ccccc3)N(c3ccc(S(=O)(=O)Nc4ncccn4)cc3)C2=O)cc1
IC50 (MCF7 [1]): 21.1 µM
IC50 (A549): 29.6 µM

IC50 [2]: 0.16 µM
Structure (SMILES): CN(C)c1ccc(/C=C2\N=C(c3ccc(Cl)cc3)N(c3ccc(S(=O)(=O)NC(=N)N)cc3)C2=O)cc1
IC50 (MCF7 [1]): 13.6 µM
IC50 (A549): 27.8 µM

IC50 [2]: 0.11 µM
Structure (SMILES): CN(C)c1ccc(/C=C2\N=C(c3ccc(Cl)cc3)N(c3ccc(C(=O)OCC(=O)Nc4ccc(S(=O)(=O)Nc5nccs5)cc4)cc3)C2=O)cc1
IC50 (MCF7 [1]): 10 µM
IC50 (A549): 12.9 µM

IC50 [2]: 0.07 µM
Structure (SMILES): CN(C)c1ccc(/C=C2\N=C(c3ccc(Cl)cc3)N(c3ccc(S(=O)(=O)Nc4ncccn4)cc3)C2=O)cc1
IC50 (MCF7 [1]): 5.86 µM
IC50 (A549): 7.66 µM
IC50 at 72 h [4]: 21.6 µM
selectivity ratio [5]: 3.69
selectivity ratio [6]: 2.88
Activity (MCF7 [7]): 22.68%
Activity (MCF7 [8]): 35.17%
Activity (MCF7 [9]): 22.84%
Activity (MCF7 [10]): 42.21%
Activity (MCF7 [11]): 1.64%
IC50 at 72 h [12]: 179 µM
Activity (HUVEC): 65.926%

IC50 [3]: 0.0251 µM
Structure (SMILES): C/C(=N\N1C(=O)CNC1=S)c1ccc(O)cc1O

IC50 [2]: 0.1 µM
Structure (SMILES): CN(C)c1ccc(/C=C2\N=C(c3ccc(Cl)cc3)N(c3ccc(S(N)(=O)=O)cc3)C2=O)cc1
IC50 (MCF7 [1]): 11.5 µM
IC50 (A549): 28.8 µM

Structure (SMILES): CN(C)c1ccc(/C=C2\N=C(c3ccccc3)N(c3ccc(C(=O)OCC(=O)Nc4ccc(S(=O)(=O)Nc5nccs5)cc4)cc3)C2=O)cc1
IC50 (MCF7 [1]): 26.5 µM
IC50 (A549): 16.6 µM

IC50 [2]: 0.36 µM
Structure (SMILES): CN(C)c1ccc(/C=C2\N=C(c3ccc(Cl)cc3)N(c3ccc(C(=O)OCC(=O)Nc4ccc(S(N)(=O)=O)cc4)cc3)C2=O)cc1
IC50 (MCF7 [1]): 24.2 µM
IC50 (A549): 25 µM

Structure (SMILES): CN(C)c1ccc(/C=C2\N=C(c3ccccc3)N(c3ccc(S(=O)(=O)Nc4nccs4)cc3)C2=O)cc1
IC50 (MCF7 [1]): 39.9 µM
IC50 (A549): 31.6 µM

Structure (SMILES): CC(=O)Oc1ccc(/C=C2\N=C(c3ccc(Cl)cc3)N(c3ccccc3)C2=O)cc1Br
IC50 (MCF7 [13]): 17.8 µg/mL (≈ 35.9 µM)
IC50 (HepG2): 4.6 µg/mL (≈ 9.28 µM)

Structure (SMILES): CN(C)c1ccc(/C=C2\N=C(c3ccc(Cl)cc3)N(c3ccc(C(=O)OCC(=O)Nc4ccc(S(=O)(=O)NC(=N)N)cc4)cc3)C2=O)cc1
IC50 (MCF7 [1]): 17.2 µM
IC50 (A549): 20.2 µM

IC50 [2]: 0.14 µM
Structure (SMILES): Cc1cc(NS(=O)(=O)c2ccc(N3C(=O)/C(=C/c4ccc(N(C)C)cc4)N=C3c3ccccc3)cc2)no1
IC50 (MCF7 [1]): 9.85 µM
IC50 (A549): 10.1 µM

Structure (SMILES): CNC(=O)c1cc(Oc2ccc(NC(=O)Nc3ccc(Cl)c(C(F)(F)F)c3)cc2)ccn1 [SORAFENIB]
IC50 (MCF7 [1]): 4.88 µM
IC50 (A549): 7.46 µM
IC50 at 72 h [12]: 89.8 µM
Activity (HUVEC): 57.037%

Structure (SMILES): O=C1/C(=C/c2ccc(O)c(Br)c2)N=C(c2ccc(Cl)cc2)N1c1ccccc1
IC50 (MCF7 [13]): 18 µg/mL (≈ 39.7 µM)
IC50 (HepG2): 6.1 µg/mL (≈ 13.4 µM)

Structure (SMILES): COc1cccc2c1C(=O)c1c(O)c3c(c(O)c1C2=O)C[C@@](O)(C(=O)CO)C[C@@H]3O[C@H]1C[C@H](N)[C@H](O)[C@H](C)O1 [DOXORUBICIN]
IC50 (MCF7 [1]): 6.52 µM
IC50 (A549): 4.99 µM
